These are literature values, as cited in patent US20220378704A1, “PROCESS FOR THE PREPARATION OF A NANOPARTICULATE ACTIVE INGREDIENT” (Bayer Aktiengesellschaft, priority 2019, published 2022).

The conditions of series [1]: within 5 min.

As to `C#C[C@]1(O)CC[C@H]2[C@@H]3CCC4=Cc5oncc5C[C@]4(C)[C@H]3CC[C@@]21C` [raw danazol particles, danazol], the specific surface area (before / after LASP process in the MCR) is listed as 0.66 m^2/g. For the same molecule, the mean particle size (before LASP process) is recorded as 55 μm. Moreover, the dissolution rate in series [1] was 35%.
